≈ marks a conversion by molar mass, not a printed value. Read-outs that look alike come from different tables or passages of the source.
What was measured:
[1] = test system: methicillin-resistant S. aureus SA 630; assay: In vitro antistaphylococcal activity, microtitration broth MIC; format: cell-based; conditions: Staphylococcus aureus
[2] = test system: vancomycin-resistant E. faecalis (VRE) 368; assay: In vitro antienterococcal activity, microtitration broth MIC; format: cell-based, Enterococcus faecalis
[3] = test system: human synovial cell line SW982; assay: In vitro cell viability, CCK-8; format: cell-based; conditions: 10% fetal bovine serum
Experimental: (§1) The effect of the compounds on viability of eukaryotic cells was evaluated on human leukemia cell line THP-1, human synovial cell line SW982, and isolated primary porcine monocytes-delivered macrophages (MDM). The general cytotoxic effect was studied on THP-1 cells in the serum-free medium (only THP-1 as the only cells used in this study are able to survive in serum-free medium). Most of the compounds had no cytotoxic effect on THP-1 cells. […] This could be caused by the direct interaction of such compounds with serum proteins or by the effect of mitogens, cytokines, and hormones present in the serum. Obviously, the full medium is closer to physiological conditions in living organisms, so it can be assumed that these compounds could be non-toxic there.
(§2) Human monocytic leukemia cell line THP-1 and human synovial cell line SW982 were purchased from the European Collection of Cell Cultures (ECACC, Salisbury, UK) and were used for determination of the influence of test compounds on cell viability, as described previously. These cell lines represent typical suspension and adherent cells, respectively. They were cultivated with test substances in the presence or absence of fetal bovine serum (FBS) in the cultivation medium, and the relative cell viability (the ratio between cells treated with compounds and cells treated only with DMSO) was determined by CCK-8 kit (Sigma) after 24 h.

[4] = test system: human monocytic leukemia cell line THP-1; assay: In vitro cell viability, CCK-8; format: cell-based; conditions: for IC50: Homo sapiens, THP-1
Experimental: as §1, §2

[5] = Lipophilicity determination by RP-HPLC (log k, log D); format: physicochemical; conditions: for log k: MeOH 72%/H2O 28%; for log D6.5: MeOH 72%/acetate buffered saline pH 6.5; for log D7.4: MeOH 72%/acetate buffered saline pH 7.4
Experimental: In addition to the mentioned ADME profile, it is responsible for interactions with biological targets. Lipophilicity is recognized as one of the most important parameters influencing ADME and bioactivity and is also part, e.g., of Lipinski’s Rule of Five (Ro5). This thermodynamic parameter describing the molecule’s affinity for an aqueous or relatively lipophilic environment can be characterized by the logarithm of the partition coefficient (log P). In this study, lipophilicity was measured by reversed-phase high-performance liquid chromatography (RP-HPLC) under isocratic conditions with methanol as the organic modifier in the aqueous mobile phase and the logarithm of the capacity factor k was calculated, which is used as the lipophilicity index converted to the log P scale. In addition to the log k values, the logarithm of the distribution coefficient DpH at pH 6.5 and 7.4 was determined to clarify the behavior of the compounds under physiological conditions and possible ionization. Instead of water, a buffer of suitable pH was used as part of the mobile phase. In addition to the above-mentioned experimental methods, commercially available ChemBioDraw Ultra 13.0 and ACD/Percepta ver. 2012 programs were used to calculate the lipophilicity values of all prepared compounds.
A HPLC separation module Waters Alliance 2695 XE equipped with a Waters Dual Absorbance Detector 2486 (Waters Corp., Milford, MA, USA) was used. A chromatographic column Symmetry® C18 5 μm, 4.6 × 250 mm, Part No. W21751W016 (Waters Corp., Milford, MA, USA) was used. The HPLC separation process was monitored by Empower® 3 Chromatography Manager Software (Waters Corp.). Isocratic elution by a mixture of MeOH p.a. (72%) and H2O-HPLC Mili-Q grade (28%) as a mobile phase was used for the determination of capacity factor k. Isocratic elution by a mixture of MeOH p.a. (72%) and acetate buffered saline (pH 7.4 and pH 6.5) (28%) as a mobile phase was used for the determination of distribution coefficient expressed as D7.4 and D6.5. The total flow of the column was 1.0 mL/min, injection 20 μL, column temperature 40 °C, and sample temperature 10 °C. The detection wavelength of 210 nm was chosen. A KI methanolic solution was used for the determination of the dead times (tD). Retention times (tR) were measured in minutes. The capacity factors k were calculated according to the formula k = (tR − tD)/tD, where tR is the retention time of the solute, and tD is the dead time obtained using an unretained analyte. The distribution coefficients DpH were calculated according to the formula DpH = (tR − tD)/tD. Each experiment was repeated three times.

[6] = test system: methicillin-resistant S. aureus (MRSA) 63718; assay: In vitro antistaphylococcal activity, microtitration broth MIC; format: cell-based; conditions: Staphylococcus aureus
[7] = test system: S. aureus, MRSA, E. faecalis, VRE, M. smegmatis, M. marinum; assay: In vitro antimicrobial screening, all tested strains; format: cell-based; conditions: antibacterial/antimycobacterial screening
[8] = test system: methicillin-resistant S. aureus SA 3202; assay: In vitro antistaphylococcal activity, microtitration broth MIC; format: cell-based; conditions: Staphylococcus aureus
[9] = test system: vancomycin-resistant E. faecalis (VRE) 342B; assay: In vitro antienterococcal activity, microtitration broth MIC; format: cell-based, Enterococcus faecalis; conditions: 24 h
[10] = test system: Mycobacterium marinum CAMP 5644; assay: In vitro antimycobacterial activity, broth dilution MIC; format: cell-based; conditions: CAMP5644, 504 h
[11] = test system: Staphylococcus aureus ATCC 29213; assay: In vitro antistaphylococcal activity, microtitration broth MIC; format: cell-based; conditions: for MIC: Staphylococcus aureus
[12] = 24 h, MRSA SA 630, read-out: log(1/MIC [M]) MRSA2 (converted)
[13] = MRSA SA 630, 24 h, read-out: MIC MRSA2
[14] = 24 h, VRE 368, read-out: log(1/MIC [M]) VRE2 (converted)
[15] = VRE 368, 24 h, read-out: MIC VRE2
[16] = 24 h, read-out: IC50 SW982 10% FSB
[17] = read-out: log(1/IC50 [M]) SW982 10% FSB (converted)
[18] = 10% fetal bovine serum, 24 h, read-out: IC50 THP-1 10% FSB
[19] = 10% fetal bovine serum, read-out: log(1/IC50 [M]) THP-1 10% FSB (converted)
[20] = serum-free medium, 24 h, read-out: IC50 THP-1 SFM
[21] = serum-free medium, read-out: log(1/IC50 [M]) THP-1 SFM (converted)
[22] = 24 h, MRSA 63718, read-out: log(1/MIC [M]) MRSA1 (converted)
[23] = MRSA 63718, 24 h, read-out: MIC MRSA1
[24] = 24 h, MRSA SA 3202, read-out: log(1/MIC [M]) MRSA3 (converted)
[25] = MRSA SA 3202, 24 h, read-out: MIC MRSA3
[26] = read-out: log(1/MIC [M]) VRE1 (converted)
[27] = M. marinum CAMP 5644, 21 days, read-out: MIC MM
[28] = M. marinum CAMP 5644, read-out: log(1/MIC [M]) MM (converted)
[29] = ATCC29213, 24 h, S. aureus ATCC 29213, read-out: log(1/MIC [M]) SA (converted)
[30] = ATCC29213, S. aureus ATCC 29213, 24 h, read-out: MIC SA

MIC [1, 12] [M]	MIC [1, 13] [M]	MIC [2, 14] [M]	MIC [2, 15] [M]	IC50 [3, 16] [M]	IC50 [3, 17] [M]	IC50 [4, 18] [M]	IC50 [4, 19] [M]	IC50 [4, 20] [M]	IC50 [4, 21] [M]	log k [5]	log D6.5 [5]	log D7.4 [5]	MIC [6, 22] [M]	MIC [6, 23] [M]	MIC [8, 24] [M]	MIC [8, 25] [M]	MIC ([9]; read-out: MIC VRE1) [M]	MIC [9, 26] [M]	MIC [10, 27] [M]	SMILES	other results
3.72e-07 (≈ 0.134 µg/mL)	3.71e-07 (≈ 0.134 µg/mL)	1.12e-05 (≈ 4.04 µg/mL)	1.11e-05 (≈ 4 µg/mL)	> 1e-05	> 1e-05	> 1e-05	> 1e-05	9e-07 ± 1e-06	8.91e-07	1.0364	1.0370	0.9945	3.72e-07 (≈ 0.134 µg/mL)	3.71e-07 (≈ 0.134 µg/mL)	6.92e-07 (≈ 0.249 µg/mL)	6.94e-07 (≈ 0.25 µg/mL)	1.11e-05 (≈ 4 µg/mL)	1.12e-05 (≈ 4.04 µg/mL)	2.78e-06 (≈ 1 µg/mL)	O=C(/C=C/c1ccc(Cl)c(Cl)c1)Nc1ccc(C(F)(F)F)cc1 [2j, (2E)-3-(3,4-Dichlorophenyl)-N-[4-(trifluoromethyl)phenyl]prop-2-enamide]	antimicrobial activity (in words) [7]: active; MIC [10, 28]: 2.75e-06 M (≈ 0.992 µg/mL); activity against S. aureus and MRSA isolates (in words) [11]: submicromolar; MIC [11, 29]: 6.92e-07 M (≈ 0.249 µg/mL); MIC [11, 30]: 6.94e-07 M (≈ 0.25 µg/mL)
3.09e-06 (≈ 1.01 µg/mL)	3.07e-06 (≈ 1 µg/mL)	> 0.000794	> 0.000786	> 1e-05	> 1e-05	> 1e-05	> 1e-05	2.9e-06 ± 1.2e-06	2.88e-06	0.8612	0.8071	0.8105	6.17e-06 (≈ 2.01 µg/mL)	6.14e-06 (≈ 2 µg/mL)	6.17e-06 (≈ 2.01 µg/mL)	6.14e-06 (≈ 2 µg/mL)	> 0.000786	> 0.000794	> 0.000786	O=C(/C=C/c1ccc(Cl)cc1)Nc1cccc(C(F)(F)F)c1 [1i, (2E)-3-(4-Chlorophenyl)-N-[3-(trifluoromethyl)phenyl]prop-2-enamide]	antimicrobial activity (in words) [7]: showed activity; MIC [10, 28]: > 0.000794 M; MIC [11, 29]: 6.17e-06 M (≈ 2.01 µg/mL); MIC [11, 30]: 6.14e-06 M (≈ 2 µg/mL)
> 0.000871	> 0.000876	> 0.000871	> 0.000876	> 1e-05	> 1e-05	> 1e-05	> 1e-05	7.5e-06 ± 1e-06	7.59e-06	0.6199	0.6669	0.6354	> 0.000871	> 0.000876	> 0.000871	> 0.000876	> 0.000876	> 0.000871	0.000876 (≈ 256 µg/mL)	O=C(/C=C/c1ccc(Cl)c(Cl)c1)Nc1ccccc1 [2a, (2E)-3-(3,4-Dichlorophenyl)-N-phenylprop-2-enamide]	MIC [10, 28]: 0.000871 M (≈ 254 µg/mL); MIC [11, 29]: 1.38e-05 M (≈ 4.03 µg/mL); MIC [11, 30]: 1.36e-05 M (≈ 3.97 µg/mL)
1.38e-06 (≈ 0.497 µg/mL)	1.39e-06 (≈ 0.501 µg/mL)	2.24e-05 (≈ 8.06 µg/mL)	2.22e-05 (≈ 8 µg/mL)	> 1e-05	> 1e-05	> 1e-05	> 1e-05	1.9e-06 ± 1e-06	1.91e-06	0.9873	0.9915	0.9505	6.92e-07 (≈ 0.249 µg/mL)	6.94e-07 (≈ 0.25 µg/mL)	1.38e-06 (≈ 0.497 µg/mL)	1.39e-06 (≈ 0.501 µg/mL)	2.22e-05 (≈ 8 µg/mL)	2.24e-05 (≈ 8.06 µg/mL)	5.55e-06 (≈ 2 µg/mL)	O=C(/C=C/c1ccc(Cl)c(Cl)c1)Nc1cccc(C(F)(F)F)c1 [2i, (2E)-3-(3,4-Dichlorophenyl)-N-[3-(trifluoromethyl)phenyl]prop-2-enamide]	antimicrobial activity (in words) [7]: active; MIC [10, 28]: 5.5e-06 M (≈ 1.98 µg/mL); MIC [11, 29]: 1.38e-06 M (≈ 0.497 µg/mL); MIC [11, 30]: 1.39e-06 M (≈ 0.501 µg/mL)
3.8e-07 (≈ 0.124 µg/mL)	3.83e-07 (≈ 0.125 µg/mL)	> 0.000776	> 0.000783	> 1e-05	> 1e-05	> 1e-05	> 1e-05	2.5e-06 ± 1.1e-06	2.51e-06	1.1899	1.1368	1.1366	3.8e-07 (≈ 0.124 µg/mL)	3.83e-07 (≈ 0.125 µg/mL)	7.59e-07 (≈ 0.248 µg/mL)	7.65e-07 (≈ 0.25 µg/mL)	> 0.000783	> 0.000776	> 0.000783	O=C(/C=C/c1ccc(Cl)cc1)Nc1cc(Cl)cc(Cl)c1 [1p, (2E)-3-(4-Chlorophenyl)-N-(3,5-dichlorophenyl)prop-2-enamide]	antimicrobial activity (in words) [7]: showed activity; MIC [10, 28]: > 0.000776 M; activity against S. aureus and MRSA isolates (in words) [11]: submicromolar; MIC [11, 29]: 3.8e-07 M (≈ 0.124 µg/mL); MIC [11, 30]: 3.83e-07 M (≈ 0.125 µg/mL)
1.32e-06 (≈ 0.496 µg/mL)	1.33e-06 (≈ 0.5 µg/mL)	4.27e-05 (≈ 16 µg/mL)	4.25e-05 (≈ 16 µg/mL)	> 1e-05	> 1e-05	> 1e-05	> 1e-05	1e-06 ± 1e-06	5.01e-07	1.0513	1.0544	1.0053	1.32e-06 (≈ 0.496 µg/mL)	1.33e-06 (≈ 0.5 µg/mL)	1.32e-06 (≈ 0.496 µg/mL)	1.33e-06 (≈ 0.5 µg/mL)	2.13e-05 (≈ 8.01 µg/mL)	2.14e-05 (≈ 8.04 µg/mL)	2.66e-06 (≈ 1 µg/mL)	O=C(/C=C/c1ccc(Cl)c(Cl)c1)Nc1ccc(OC(F)(F)F)cc1 [2k, (2E)-3-(3,4-Dichlorophenyl)-N-[4-(trifluoromethoxy)phenyl]prop-2-enamide]	reduction of cell viability, CCK-8 assay ([4]; 2k 1.0 µM, serum-free medium): 50%; antimicrobial activity (in words) [7]: active; MIC [10, 28]: 2.95e-07 M (≈ 0.111 µg/mL); MIC [11, 29]: 2.95e-07 M (≈ 0.111 µg/mL); MIC [11, 30]: 1.33e-06 M (≈ 0.5 µg/mL)

— publication PMC8951032, “Study of Biological Activities and ADMET-Related Properties of Novel Chlorinated N-arylcinnamamides” (International Journal of Molecular Sciences, 2022)
